Measurements published in ChEMBL document CHEMBL3885881, “DrugMatrix”.

Species on record: Rattus norvegicus
Assay: DrugMatrix - Regimen: Daily Repeat
Type: toxicity, organism-based, Sprague-Dawley
Parameters: regimen Daily Repeat, gender Male, age 6-8 weeks
Details: in vivo, po, route oral GAVAGE, […]; for ABSOLUTE BASOPHIL / ABSOLUTE EOSINOPHIL / ABSOLUTE LYMPHOCYTE / ABSOLUTE MONOCYTE / ABSOLUTE SEGMENTED NEUTROPHIL / BASOPHIL / EOSINOPHIL / ERYTHROCYTE COUNT / HEMATOCRIT / HEMOGLOBIN / LEUKOCYTE COUNT / LYMPHOCYTE / MEAN CORPUSCULAR HEMOGLOBIN / MEAN CORPUSCULAR HEMOGLOBIN CONCENTRATION / MEAN CORPUSCULAR VOLUME / MONOCYTE / NEUTROPHIL / NUCLEATED RED BLOOD CELLS / PLATELET COUNT: tissue Blood; for ALANINE AMINOTRANSFERASE / ALBUMIN / ALKALINE PHOSPHATASE / ASPARTATE AMINOTRANSFERASE / BLOOD UREA NITROGEN / CARBON DIOXIDE / CHLORIDE / CHOLESTEROL / CREATINE PHOSPHOKINASE / CREATININE / GLUCOSE / LACTATE DEHYDROGENASE / LIPASE / PHOSPHORUS / POTASSIUM / SODIUM / TOTAL BILIRUBIN / TOTAL PROTEIN / URIC ACID: tissue Plasma
[1] = 0 mg/kg, 72 h, dose level Control, time 3 day
[2] = 0 mg/kg, 120 h, dose level Control, time 5 day
[3] = 43 mg/kg, 72 h, dose level Low, time 3 day
[4] = 43 mg/kg, 120 h, dose level Low, time 5 day

Which results are given for `Clc1ccc(COC(Cn2ccnc2)c2ccc(Cl)cc2Cl)cc1` (configuration not stated) [ECONAZOLE]?
ABSOLUTE BASOPHIL [1]: 0 CELLS/uL; ABSOLUTE EOSINOPHIL [1]: 0 CELLS/uL; ABSOLUTE LYMPHOCYTE [1]: 7601 CELLS/uL; ABSOLUTE MONOCYTE [1]: 354.33 CELLS/uL; ABSOLUTE SEGMENTED NEUTROPHIL [1]: 744.67 CELLS/uL; BASOPHIL [1]: 0%; EOSINOPHIL [1]: 0%; ERYTHROCYTE COUNT [1]: 5.03 x10E6/uL; HEMATOCRIT [1]: 33.7%; HEMOGLOBIN [1]: 13.43 G/DL; LEUKOCYTE COUNT [1]: 8.7 x10E3/uL; LYMPHOCYTE [1]: 86.33%; MEAN CORPUSCULAR HEMOGLOBIN [1]: 26.7 pg; MEAN CORPUSCULAR HEMOGLOBIN CONCENTRATION [1]: 39.83 G/DL; MEAN CORPUSCULAR VOLUME [1]: 67 fL; MONOCYTE [1]: 4.67%; NEUTROPHIL [1]: 9%; NUCLEATED RED BLOOD CELLS [1]: 0 /100WBC; PLATELET COUNT [1]: 1151 x10E3/uL; ALANINE AMINOTRANSFERASE [1]: 97.67 u/L; ALBUMIN [1]: 4.07 G/DL; ALKALINE PHOSPHATASE [1]: 607.67 u/L; ASPARTATE AMINOTRANSFERASE [1]: 101 u/L; BLOOD UREA NITROGEN [1]: 13.33 mg/dL; CARBON DIOXIDE [1]: 36 mmol/L; CHLORIDE [1]: 99.67 MEQ/L; CHOLESTEROL [1]: 75.67 mg/dL; CREATINE PHOSPHOKINASE [1]: 279.67 u/L; CREATININE [1]: 0.16 mg/dL; GLUCOSE [1]: 164 mg/dL; LACTATE DEHYDROGENASE [1]: 115 u/L; LIPASE [1]: 12.67 u/L; PHOSPHORUS [1]: 8.77 mg/dL; POTASSIUM [1]: 5.79 MEQ/L; SODIUM [1]: 142.83 MEQ/L; TOTAL BILIRUBIN [1]: 0.27 mg/dL; TOTAL PROTEIN [1]: 5.8 G/DL; URIC ACID [1]: 0.67 mg/dL; ABSOLUTE BASOPHIL [2]: 0 CELLS/uL; ABSOLUTE EOSINOPHIL [2]: 0 CELLS/uL; ABSOLUTE LYMPHOCYTE [2]: 4426.33 CELLS/uL; ABSOLUTE MONOCYTE [2]: 102.67 CELLS/uL; ABSOLUTE SEGMENTED NEUTROPHIL [2]: 337.67 CELLS/uL; BASOPHIL [2]: 0%; EOSINOPHIL [2]: 0%; ERYTHROCYTE COUNT [2]: 5.31 x10E6/uL; HEMATOCRIT [2]: 32.5%; HEMOGLOBIN [2]: 13.17 G/DL; LEUKOCYTE COUNT [2]: 4.87 x10E3/uL; LYMPHOCYTE [2]: 90.33%; MEAN CORPUSCULAR HEMOGLOBIN [2]: 24.93 pg; MEAN CORPUSCULAR HEMOGLOBIN CONCENTRATION [2]: 40.67 G/DL; MEAN CORPUSCULAR VOLUME [2]: 61.33 fL; MONOCYTE [2]: 2.33%; NEUTROPHIL [2]: 7.33%; NUCLEATED RED BLOOD CELLS [2]: 0.33 /100WBC; PLATELET COUNT [2]: 848.33 x10E3/uL; ALANINE AMINOTRANSFERASE [2]: 59.67 u/L; ALBUMIN [2]: 3.87 G/DL; ALKALINE PHOSPHATASE [2]: 452 u/L; ASPARTATE AMINOTRANSFERASE [2]: 81.33 u/L; BLOOD UREA NITROGEN [2]: 13.67 mg/dL; CARBON DIOXIDE [2]: 26.33 mmol/L; CHLORIDE [2]: 103.67 MEQ/L; CHOLESTEROL [2]: 65.67 mg/dL; CREATINE PHOSPHOKINASE [2]: 355.33 u/L; CREATININE [2]: 0.14 mg/dL; GLUCOSE [2]: 171.33 mg/dL; LACTATE DEHYDROGENASE [2]: 118 u/L; LIPASE [2]: 11.33 u/L; PHOSPHORUS [2]: 11.13 mg/dL; POTASSIUM [2]: 5.18 MEQ/L; SODIUM [2]: 143.17 MEQ/L; TOTAL BILIRUBIN [2]: 0.2 mg/dL; TOTAL PROTEIN [2]: 5.87 G/DL; URIC ACID [2]: 0.63 mg/dL; ABSOLUTE BASOPHIL [3]: 0 CELLS/uL; ABSOLUTE EOSINOPHIL [3]: 68.67 CELLS/uL; ABSOLUTE LYMPHOCYTE [3]: 8555.33 CELLS/uL; ABSOLUTE MONOCYTE [3]: 189.33 CELLS/uL; ABSOLUTE SEGMENTED NEUTROPHIL [3]: 653.33 CELLS/uL; BASOPHIL [3]: 0%; EOSINOPHIL [3]: 0.67%; ERYTHROCYTE COUNT [3]: 4.93 x10E6/uL; HEMATOCRIT [3]: 32.1%; HEMOGLOBIN [3]: 12.8 G/DL; LEUKOCYTE COUNT [3]: 9.47 x10E3/uL; LYMPHOCYTE [3]: 90.67%; MEAN CORPUSCULAR HEMOGLOBIN [3]: 25.97 pg; MEAN CORPUSCULAR HEMOGLOBIN CONCENTRATION [3]: 39.9 G/DL; MEAN CORPUSCULAR VOLUME [3]: 65.1 fL; MONOCYTE [3]: 2%; NEUTROPHIL [3]: 6.67%; NUCLEATED RED BLOOD CELLS [3]: 0 /100WBC; PLATELET COUNT [3]: 1050.67 x10E3/uL; ALANINE AMINOTRANSFERASE [3]: 100.33 u/L; ALBUMIN [3]: 3.8 G/DL; ALKALINE PHOSPHATASE [3]: 429 u/L; ASPARTATE AMINOTRANSFERASE [3]: 104.67 u/L; BLOOD UREA NITROGEN [3]: 11.33 mg/dL; CARBON DIOXIDE [3]: 37.67 mmol/L; CHLORIDE [3]: 107 MEQ/L; CHOLESTEROL [3]: 72.33 mg/dL; CREATINE PHOSPHOKINASE [3]: 331 u/L; CREATININE [3]: 0.19 mg/dL; GLUCOSE [3]: 156.67 mg/dL; LACTATE DEHYDROGENASE [3]: 94 u/L; LIPASE [3]: 10.33 u/L; PHOSPHORUS [3]: 9.27 mg/dL; POTASSIUM [3]: 5.1 MEQ/L; SODIUM [3]: 138.9 MEQ/L; TOTAL BILIRUBIN [3]: 0.13 mg/dL; TOTAL PROTEIN [3]: 5.6 G/DL; URIC ACID [3]: 0.57 mg/dL; ABSOLUTE BASOPHIL [4]: 0 CELLS/uL; ABSOLUTE EOSINOPHIL [4]: 31.33 CELLS/uL; ABSOLUTE LYMPHOCYTE [4]: 7327.67 CELLS/uL; ABSOLUTE MONOCYTE [4]: 294.67 CELLS/uL; ABSOLUTE SEGMENTED NEUTROPHIL [4]: 379.67 CELLS/uL; BASOPHIL [4]: 0%; EOSINOPHIL [4]: 0.33%; ERYTHROCYTE COUNT [4]: 5.33 x10E6/uL; HEMATOCRIT [4]: 33.3%; HEMOGLOBIN [4]: 13 G/DL; LEUKOCYTE COUNT [4]: 8.03 x10E3/uL; LYMPHOCYTE [4]: 91%; MEAN CORPUSCULAR HEMOGLOBIN [4]: 24.4 pg; MEAN CORPUSCULAR HEMOGLOBIN CONCENTRATION [4]: 39.07 G/DL; MEAN CORPUSCULAR VOLUME [4]: 62.47 fL; MONOCYTE [4]: 3.67%; NEUTROPHIL [4]: 5%; NUCLEATED RED BLOOD CELLS [4]: 0 /100WBC; PLATELET COUNT [4]: 1117.67 x10E3/uL; ALANINE AMINOTRANSFERASE [4]: 59 u/L; ALBUMIN [4]: 3.97 G/DL; ALKALINE PHOSPHATASE [4]: 377.67 u/L; ASPARTATE AMINOTRANSFERASE [4]: 79 u/L; BLOOD UREA NITROGEN [4]: 12.33 mg/dL; CARBON DIOXIDE [4]: 28.67 mmol/L; CHLORIDE [4]: 104.33 MEQ/L; CHOLESTEROL [4]: 71.33 mg/dL; CREATINE PHOSPHOKINASE [4]: 198.33 u/L; CREATININE [4]: 0.22 mg/dL; GLUCOSE [4]: 162 mg/dL; LACTATE DEHYDROGENASE [4]: 63 u/L; LIPASE [4]: 12.33 u/L; PHOSPHORUS [4]: 10.33 mg/dL; POTASSIUM [4]: 5.68 MEQ/L; SODIUM [4]: 144.73 MEQ/L; TOTAL BILIRUBIN [4]: 0.17 mg/dL; TOTAL PROTEIN [4]: 5.93 G/DL; URIC ACID [4]: 0.5 mg/dL
